Where two headings read alike, the source gives them in different places.
How the values were obtained:
hNET [1] = biological target: hNET; set-up: method as in ref 32 (Tatsumi et al. 1997); details: footnote a: hNET in HEK293 cells, [3H]nisoxetine; ref 32 (Tatsumi et al. 1997); read-out: NET Ki; cited from earlier work
[2] = biological target: T1, purified dDAT (dDAT-His8) (Drosophila melanogaster, UniProt Q7K4Y6); experiment: Homologous competitive [3H]mazindol binding to purified dDAT (SPA)
T1 construct: Full length dDAT with a C-terminal thrombin cleavage site followed by a His8-tag; made in house; host or cells: Expi293F suspension cells transduced with BacMam baculovirus (virus produced in Sf9)
T1 sequence (Q7K4Y6 whole entry): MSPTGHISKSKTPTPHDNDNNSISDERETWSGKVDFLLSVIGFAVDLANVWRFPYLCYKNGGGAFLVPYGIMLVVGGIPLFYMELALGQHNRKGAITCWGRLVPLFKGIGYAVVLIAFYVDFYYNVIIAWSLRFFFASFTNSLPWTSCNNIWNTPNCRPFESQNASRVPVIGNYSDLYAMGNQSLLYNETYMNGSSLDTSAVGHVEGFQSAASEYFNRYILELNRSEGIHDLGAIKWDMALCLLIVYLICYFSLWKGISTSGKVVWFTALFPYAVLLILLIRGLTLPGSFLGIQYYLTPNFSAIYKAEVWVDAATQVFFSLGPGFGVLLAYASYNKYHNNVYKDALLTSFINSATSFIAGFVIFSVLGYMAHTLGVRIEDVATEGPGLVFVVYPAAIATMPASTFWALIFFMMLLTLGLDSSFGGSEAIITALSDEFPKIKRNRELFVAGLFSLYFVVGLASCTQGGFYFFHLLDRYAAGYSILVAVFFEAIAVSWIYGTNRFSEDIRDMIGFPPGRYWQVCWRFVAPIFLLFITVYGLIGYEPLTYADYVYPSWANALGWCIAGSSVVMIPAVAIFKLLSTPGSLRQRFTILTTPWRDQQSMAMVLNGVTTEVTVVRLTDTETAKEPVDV
Method: (§1) Binding of substrates and inhibitors to purified dDAT was assessed through saturation and competition binding by scintillation proximity assay (SPA).
(§2) This mixture was incubated on rotation for 45 min in darkness at 4 °C. The dDAT-SPA buffer mixture was added to the wells along with 100 nM of the desired tritiated ligand (often at 10% specific activity) and the dilution series of the unlabelled competitor. […] The plates were sealed, mixed at RT for 1.5 h on an agitator and left to settle at RT for 30 min. […] Plates were stored at 4 °C overnight and recounted to ensure that the original data was obtained at equilibrium. All experiments were performed in triplicates.
(§3) All statistical tests and data analyses were performed in GraphPad Prism 9 (GraphPad Software, Prism 9 version 9.2.0, San Diego, CA, USA). Unless otherwise specified, all data points are given as mean ± SEM (standard error of the mean) or mean [SEM interval]. Data obtained from competition binding analyses were fitted as a non-linear regression (curve fit) through an inhibitory dose–response model (variable slope), otherwise known as a four-parameter logistic equation. The non-specific binding condition was subtracted before fitting the data. From the logIC50, the IC50 can be obtained and, therefore, the affinity (Ki) derived through the Cheng-Prusoff equation. For homologous competitive binding, whereby the same compound is used as both the labelled and unlabelled ligand, the Cheng-Prusoff equation can be converted to obtain the Kd. Data plotted as a percentage of the control (absence of the competitive ligand) unless otherwise stated, i.e., normalized to the Bmax determined from the sigmoidal fit. Saturation binding data were fitted after subtracting the non-specific binding from each condition. The data were fitted as a non-linear regression (curve fit) through a sigmoidal dose–response (variable slope) model to determine the Kd. Ion binding study data were plotted using the same four-parameter logistic equation. […]

[3] = system: dDAT stably transfected into MDCK cells; set-up: method as in ref 25 (Pörzgen et al. 2001); details: uptake inhibition of [3H]dopamine, ref 25 (Pörzgen et al. 2001); cited from earlier work
[4] = biological target: T2, purified, full length dDAT (Drosophila melanogaster, UniProt Q7K4Y6); experiment: Competitive inhibition of [3H]nisoxetine binding to purified dDAT by scintillation proximity assay (SPA)
T2 construct: Full length dDAT with a C-terminal thrombin cleavage site followed by a His8-tag; made in house; host or cells: Expi293F suspension cells transduced with BacMam baculovirus (virus produced in Sf9)
T2 sequence (Q7K4Y6 whole entry): as above
Method: as §1, §2
(§4) All statistical tests and data analyses were performed in GraphPad Prism 9 (GraphPad Software, Prism 9 version 9.2.0, San Diego, CA, USA). Unless otherwise specified, all data points are given as mean ± SEM (standard error of the mean) or mean [SEM interval]. Data obtained from competition binding analyses were fitted as a non-linear regression (curve fit) through an inhibitory dose–response model (variable slope), otherwise known as a four-parameter logistic equation. The non-specific binding condition was subtracted before fitting the data. From the logIC50, the IC50 can be obtained and, therefore, the affinity (Ki) derived through the Cheng-Prusoff equation. For homologous competitive binding, whereby the same compound is used as both the labelled and unlabelled ligand, the Cheng-Prusoff equation can be converted to obtain the Kd. Data plotted as a percentage of the control (absence of the competitive ligand) unless otherwise stated, i.e., normalized to the Bmax determined from the sigmoidal fit. Saturation binding data were fitted after subtracting the non-specific binding from each condition. The data were fitted as a non-linear regression (curve fit) through a sigmoidal dose–response (variable slope) model to determine the Kd. Ion binding study data were plotted using the same four-parameter logistic equation. […] The saturation curves on each plate were fitted with a globally shared Bmax value to enable estimation of low affinity constants.

[5] = biological target: T3, dDAT expressed in COS-7 cells (Drosophila melanogaster, UniProt Q7K4Y6); experiment: Competition binding of [3H]nisoxetine in COS-7 cells expressing dDAT
T3 construct: Full length dDAT with a C-terminal thrombin cleavage site followed by a His8-tag; expressed in transfected cells; host or cells: COS-7 cells, transient transfection
T3 sequence (Q7K4Y6 whole entry): as above
Method: (§5) COS-7 cells (a generous gift from Prof. U. Gether, Univ. of Copenhagen) were transiently transfected in Opti-MEM media (ThermoFisher Scientific, Waltham, MA, USA) using lipofectamine 3000 (ThermoFisher Scientific, Waltham, MA, USA) with 0.36 µg hDAT in the pcDNA3.1 vector, 0.36–0.47 µg hNET in the pcDNA3.1 vector or 0.83–1.6 µg dDAT in pEG BacMam vector per 10^6 cells, in a lipofectamine:DNA (w/w) ratio of 3.5. Cells were seeded in 24-well plates (5 × 10^4/well) coated with poly-ornithine and incubated in 10% CO2 at 37 °C in DMEM media supplemented with 1% FBS.
(§6) Competition binding assays were performed directly in the culture dish 48 h after transfection of the cells. The competition binding experiments were carried out at room temperature (RT). […] All experiments were performed in triplicates.
as §4

hDAT [6] = details: read-out: DAT Ki; footnote a: hDAT in HEK293 cells, [3H]CFT; ref 32 (Tatsumi et al. 1997); cited from earlier work
hDAT [7] = biological target: hDAT; set-up: method as in ref 35 (Owens et al. 2001); details: footnote e: hDAT in HEK293 cells, [125I]RTI-55; ref 35 (Owens et al. 2001); read-out: DAT Ki; cited from earlier work
hNET [8] = biological target: hNET; set-up: method as in ref 35 (Owens et al. 2001); details: footnote e: hNET in HEK293 cells, [3H]nisoxetine; ref 35 (Owens et al. 2001); read-out: NET Ki; cited from earlier work
[9] = biological target: T4, hNET expressed in COS-7 cells (Homo sapiens, UniProt P23975); experiment: Competition binding of [3H]nisoxetine in COS-7 cells expressing hNET; details: hNET in COS-7 cells; competitive inhibition of [3H]nisoxetine binding; mean [SEM interval]; read-out: NET Ki
T4 construct: expressed in transfected cells; host or cells: COS-7 cells, transient transfection
T4 sequence (P23975 whole entry): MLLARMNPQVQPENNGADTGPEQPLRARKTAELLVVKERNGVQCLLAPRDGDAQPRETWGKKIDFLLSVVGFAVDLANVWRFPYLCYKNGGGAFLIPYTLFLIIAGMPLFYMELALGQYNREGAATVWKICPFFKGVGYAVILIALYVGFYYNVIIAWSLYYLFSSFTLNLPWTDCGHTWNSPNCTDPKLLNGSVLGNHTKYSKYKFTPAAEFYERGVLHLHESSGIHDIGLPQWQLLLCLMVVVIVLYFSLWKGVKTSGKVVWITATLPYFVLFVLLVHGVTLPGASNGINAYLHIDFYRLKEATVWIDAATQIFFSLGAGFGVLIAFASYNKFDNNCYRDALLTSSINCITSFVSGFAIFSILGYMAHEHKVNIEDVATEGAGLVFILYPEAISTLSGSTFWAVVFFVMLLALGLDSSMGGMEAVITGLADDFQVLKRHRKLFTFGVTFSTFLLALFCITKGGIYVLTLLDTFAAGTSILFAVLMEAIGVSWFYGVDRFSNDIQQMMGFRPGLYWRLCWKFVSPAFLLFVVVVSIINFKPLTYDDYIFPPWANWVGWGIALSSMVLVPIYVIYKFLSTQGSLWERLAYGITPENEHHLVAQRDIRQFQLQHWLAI
Method: as §6
as §3, with “condition.” for “condition. The data were fitted as a non-linear regression (curve fit) through a sigmoidal dose–response (variable slope) model to determine the Kd. Ion binding study data were plotted using the same four-parameter logistic equation.”

DAT = biological target: DAT; set-up: method as in ref 34 (Cao et al. 2016); details: footnote d: rat caudate putamen membranes, [3H]CFT; ref 34 (Cao et al. 2016); cited from earlier work
[10] = biological target: T1, purified dDAT (dDAT-His8); experiment: Saturation binding of [3H]nisoxetine to purified dDAT (SPA)
Method: as §1
All experiments were performed in triplicates.
as §3, with “condition.” for “condition. The data were fitted as a non-linear regression (curve fit) through a sigmoidal dose–response (variable slope) model to determine the Kd. Ion binding study data were plotted using the same four-parameter logistic equation.”

[11] = biological target: T5, hDAT expressed in COS-7 cells (Homo sapiens, UniProt Q01959); experiment: Competition binding of [3H]CFT in COS-7 cells expressing hDAT; details: hDAT in COS-7 cells; competitive inhibition of [3H]CFT binding; mean [SEM interval]; read-out: DAT Ki
T5 construct: expressed in transfected cells; host or cells: COS-7 cells, transient transfection
T5 sequence (Q01959 whole entry): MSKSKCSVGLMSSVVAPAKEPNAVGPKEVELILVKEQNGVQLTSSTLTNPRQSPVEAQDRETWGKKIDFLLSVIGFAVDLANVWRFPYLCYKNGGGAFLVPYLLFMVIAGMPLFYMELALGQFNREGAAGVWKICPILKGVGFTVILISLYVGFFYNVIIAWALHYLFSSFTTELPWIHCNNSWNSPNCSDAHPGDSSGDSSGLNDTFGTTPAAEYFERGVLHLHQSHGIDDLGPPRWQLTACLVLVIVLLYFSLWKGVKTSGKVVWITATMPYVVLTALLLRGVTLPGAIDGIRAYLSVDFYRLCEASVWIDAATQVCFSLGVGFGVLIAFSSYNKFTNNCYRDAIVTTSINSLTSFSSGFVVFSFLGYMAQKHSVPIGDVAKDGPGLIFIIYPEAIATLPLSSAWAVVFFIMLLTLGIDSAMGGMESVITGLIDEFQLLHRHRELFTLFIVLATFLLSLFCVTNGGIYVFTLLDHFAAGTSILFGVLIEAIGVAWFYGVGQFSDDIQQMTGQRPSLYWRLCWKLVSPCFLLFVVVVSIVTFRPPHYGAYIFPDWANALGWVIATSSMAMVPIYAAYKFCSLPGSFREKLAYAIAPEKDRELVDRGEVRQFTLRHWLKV
Method: as §5, §6
All statistical tests and data analyses were performed in GraphPad Prism 9 (GraphPad Software, Prism 9 version 9.2.0, San Diego, CA, USA). Unless otherwise specified, all data points are given as mean ± SEM (standard error of the mean) or mean [SEM interval]. […] Data plotted as a percentage of the control (absence of the competitive ligand) unless otherwise stated, i.e., normalized to the Bmax determined from the sigmoidal fit. […]

NET = biological target: NET; set-up: method as in ref 33 (Agoston et al. 1997); details: footnote c: [3H]unknown ligand for NET; ref 33 (Agoston et al. 1997); cited from earlier work
[12] = dDAT in COS-7 cells, competitive inhibition of [3H]nisoxetine binding, mean [SEM interval]

| SMILES | IC50 [3] | Ki ([4]; read-out: dDAT Ki) | other results |
| --- | --- | --- | --- |
| OC1(c2ccc(Cl)cc2)c2ccccc2C2=NCCN21 (stereo not drawn) [Mazindol] | 4.4 ± 2.2 nM | 2800 nM | Ki (hNET [1]): 0.45 ± 0.03 nM; IC50 [2]: 25 nM; Kd [2]: 13000 nM; IC50 ([2]; read-out: IC50, second (lower affinity) binding population of biphasic curve, homologous [3H]mazindol competition, biphasic dataset T = 16 h, two-site fit, estimated): 79000 nM; Ki ([4]; Ki, first (higher affinity) binding population of biphasic curve, [3H]nisoxetine displacement, T = 2 h at RT, two-site fit, representative dataset, estimated): 0.2 nM; Ki ([4]; read-out: Ki, second (lower affinity) binding population of biphasic curve, [3H]nisoxetine displacement, T = 2 h at RT, two-site fit, representative dataset, estimated): 402 nM |
| NC[C@H](O)c1ccc(O)c(O)c1 [Norepinephrine] | 49000 ± 9000 nM | 184000 nM | Ki [5]: 68000 nM |
| CC(O)CN1CCN(CC[S+]([O-])C(c2ccc(F)cc2)c2ccc(F)cc2)CC1 (stereo not drawn) [JJC8-091] | – | 199000 nM | – |
| NCCc1c[nH]c2ccc(O)cc12 [Serotonin] | 43000 ± 7000 nM | 173000 nM | Ki (hNET [1]): > 100000 nM; Ki (hDAT [6]): > 100000 nM |
| CN(C)CCC[C@@]1(c2ccc(F)cc2)OCc2cc(C#N)ccc21 [S-citalopram] | 8100 ± 2100 nM | 24000 nM | Ki (hDAT [7]): 27400 ± 3110 nM; Ki (hNET [8]): 7840 ± 998 nM |
| COC(=O)[C@H]1[C@@H](OC(=O)c2ccccc2)C[C@@H]2CC[C@H]1N2C [Cocaine] | 2660 ± 230 nM | 20000 nM | Ki (hNET [1]): 1420 ± 50 nM |
| CC(NC(C)(C)C)C(=O)c1cccc(Cl)c1 (stereo not drawn) [Bupropion] | 48000 ± 5000 nM | 7500 nM | – |
| COC(=O)[C@H]1[C@@H](c2ccc(F)cc2)C[C@@H]2CC[C@H]1N2C [CFT] | – | 25000 nM | Ki [5, 12]: 3900 nM; Ki [9]: 357 nM |
| CN[C@@H](C)Cc1ccccc1 [Methamphetamine] | – | 13000 nM | Ki (hNET [1]): 660 ± 20 nM; Ki (hDAT [6]): 2800 ± 100 nM |
| [O-][S+](CCN1CCN(CC(O)Cc2ccccc2)CC1)C(c1ccc(F)cc1)c1ccc(F)cc1 (stereo not drawn) [JJC8-088] | – | 33000 nM | Ki (DAT): 2.53 ± 0.25 nM |
| CN(C)CCC=C1c2ccccc2CCc2ccccc21 [Amitriptyline] | 30 ± 1 nM | 97 nM | Ki (hDAT [6]): 3250 ± 20 nM |
| CNCCC(Oc1ccccc1OC)c1ccccc1 (stereo not drawn) [Nisoxetine] | 5.6 ± 2.2 nM | – | Kd [10]: 31 nM; Kd [5]: 70 nM |
| CNCCC=C1c2ccccc2CCc2ccccc21 [Nortriptyline] | – | – | Ki (hDAT [6]): 1140 ± 30 nM |
| COC(=O)[C@H]1C(c2ccc(I)cc2)C[C@@H]2CC[C@H]1N2C (stereo partly drawn) [RTI-55] | 66 ± 10 nM | 130 nM | Ki [11]: 0.5 nM; Ki [5, 12]: 299 nM; Ki [9]: 4 nM |
| NC(=O)C[S+]([O-])C(c1ccccc1)c1ccccc1 (stereo not drawn) [Modafinil] | – | 554000 nM | – |
| CN(C)CCCN1c2ccccc2CCc2ccccc21 [Imipramine] | 30 ± 10 nM | – | – |
| CCCCN1[C@@H]2CC[C@H]1CC(OC(c1ccc(F)cc1)c1ccc(F)cc1)C2 (stereo partly drawn) [JHW007] | – | 3100 nM | Ki (NET): 1330 nM |
| Fc1ccc([C@@H]2CCNC[C@H]2COc2ccc3c(c2)OCO3)cc1 [Paroxetine] | 22 ± 4 nM | 322 nM | – |
| C[C@H](N)Cc1ccccc1 [D-amphetamine] | 6600 ± 900 nM | 18000 nM | – |
| NCCc1ccc(O)c(O)c1 [Dopamine] | 2900 ± 500 nM | – | – |
